From ChEMBL document CHEMBL5137007, “Hamuramicin C, a Cytotoxic Bicyclic Macrolide Isolated from a Wasp Gut Bacterium” (J Nat Prod, 2022)

Assays:
MDA-MB-231 = assay: Antiproliferative activity against human MDA-MB-231 cells measured after 72 hrs by SRB assay; format: functional, cell-based; settings: MDA-MB-231, 72 h
[1] = Antiproliferative activity against human MRC5 cells measured after 72 hrs by SRB assay; format: toxicity, cell-based
[2] = Selectivity index, ratio of IC50 for human MRC5 cells to IC50 for human SK-HEP1 cells; format: toxicity; settings: MRC5 cells versus SK-HEP1 cells, read-out: Selectivity Index
SNU-638 = assay: Antiproliferative activity against human SNU-638 cells measured after 72 hrs by SRB assay; format: functional, cell-based; settings: SNU-638, 72 h
[3] = Selectivity index, ratio of IC50 for human MRC5 cells to IC50 for human HCT-116 cells; format: toxicity; settings: MRC5 cells versus HCT-116 cells, read-out: Selectivity Index
HCT-116 = assay: Antiproliferative activity against human HCT-116 cells measured after 72 hrs by SRB assay; format: functional, cell-based; settings: HCT-116, 72 h
A549 = assay: Antiproliferative activity against human A549 cells measured after 72 hrs by SRB assay; format: functional, cell-based; settings: A549, 72 h
[4] = Selectivity index, ratio of IC50 for human MRC5 cells to IC50 for human A549 cells; format: toxicity; settings: MRC5 cells versus A549 cells, read-out: Selectivity Index
[5] = Selectivity index, ratio of IC50 for human MRC5 cells to IC50 for human SNU-638 cells; format: toxicity; settings: MRC5 cells versus SNU-638 cells, read-out: Selectivity Index
[6] = Selectivity index, ratio of IC50 for human MRC5 cells to IC50 for human MDA-MB-231 cells; format: toxicity; settings: MRC5 cells versus MDA-MB-231 cells, read-out: Selectivity Index
SK-HEP1 = assay: Antiproliferative activity against human SK-HEP1 cells measured after 72 hrs by SRB assay; format: functional, cell-based; settings: SK-HEP1, 72 h

Row | IC50 (MDA-MB-231) | IC50 (SNU-638) | IC50 (HCT-116) | IC50 (A549) | IC50 (SK-HEP1) | Compound | IC50 at 72 h [1] | selectivity ratio [2] | selectivity ratio [3] | selectivity ratio [4] | selectivity ratio [5] | selectivity ratio [6]
1 | 3.4 µM | 2.4 µM | 1.3 µM | 7.3 µM | 2.6 µM | CCC[C@]1(O)C[C@H](O)[C@@H](C)[C@H]([C@H](C)[C@@H]2C/C=C/C=C/C=C/[C@H](O)C(=O)/C(C)=C/C(C)=C/[C@@H](O)/C(C)=C/CC(=O)O2)O1 | 18.7 µM | 7.2 | 14.2 | 2.6 | 7.9 | 5.5
2 | 9.7 µM | – | 1.4 µM | 0.8 µM | 0.7 µM | COc1cc([C@@H]2c3cc4c(cc3[C@@H](O[C@@H]3O[C@@H]5CO[C@@H](C)O[C@H]5[C@H](O)[C@H]3O)[C@H]3COC(=O)[C@H]23)OCO4)cc(OC)c1O [ETOPOSIDE] | > 20 µM | – | – | – | – | –
